Where a name gives a salt, the structure may show the parent alone.
Point of comparison: `CCC[C@@H](N)c1nc(-c2ccc(-c3ccccc3)cc2)c[nH]1` (as salt: hydrochloride) [Example 209, (1R)-1-(4-[1,1′-biphenyl]-4-yl-1H-imidazol-2-yl)-1-butanamine], melting point 155.4 °C. Against it:
- CC(C)(C)c1c[nH]c([C@H](N)Cc2c[nH]c3ccccc23)n1 (as salt: hydrochloride) — higher, 230 to 232 °C
- NC1(c2nc(-c3ccccc3)c[nH]2)CCCCC1 (as salt: hydrochloride) — higher, 202 to 204 °C
- CC(C)(N)c1nc(-c2ccccc2)c[nH]1 (as salt: hydrochloride) — higher, 200 to 204 °C
- NCc1nc(-c2ccccc2)c[nH]1 (as salt: hydrochloride) [Example 51, (4-phenyl-1H-imidazol-2-yl)methanamine] — higher, 228 to 230 °C
- CCCCCCN[C@@H](Cc1c[nH]c2ccccc12)c1nc(-c2ccccc2)c[nH]1 (as salt: hydrochloride) [Example 53, N-[(1S)-2-(1H-indol-3-yl)-1-(4-phenyl-1H-imidazol-2-yl)ethyl]-1-hexanamine] — lower, 132 to 134 °C
- Cn1cc(-c2ccc(-c3ccccc3)cc2)nc1CN (as salt: hydrochloride) [Example 55, (4-[1,1′-biphenyl]-4-yl-1-methyl-1H-imidazol-2-yl)methanamine] — higher, 279 to 280 °C
- CC(C)C[C@H](N)c1nc(-c2ccccc2)c[nH]1 (as salt: hydrochloride) [Example 56, (1S)-3-methyl-1-(4-phenyl-1H-imidazol-2-yl)-1-butanamine] — lower, 150 to 152 °C
- N[C@H](c1nc(-c2ccccc2)c[nH]1)C1CCCCC1 (as salt: hydrochloride) [Example 80, (S)-cyclohexyl(4-phenyl-1H-imidazol-2-yl)methylamine] — higher, 208 to 210 °C
- c1[nH]c([C@@H](NC2CCCCC2)C2CCCCC2)nc1C1CCCCC1 (as salt: hydrochloride) [Example 82, N-[(S)-cyclohexyl(4-cyclohexyl-1H-imidazol-2-yl)methyl]-cyclohexanamine] — higher, 180 to 182 °C
- c1ccc(-c2c[nH]c([C@@H](NC3CCC3)C3CCCCC3)n2)cc1 (as salt: hydrochloride) [Example 83, N-[(S)-cyclohexyl(4-phenyl-1H-imidazol-2-yl)methyl]-cyclobutanamine] — higher, 210 to 212 °C
- NCc1nc(-c2ccccc2)cn1Cc1ccccc1 (as salt: hydrochloride) [Example 107, (1-benzyl-4-phenyl-1H-imidazol-2-yl)methanamine] — higher, 248 to 250 °C
- N[C@H](CCc1ccccc1)c1nc(-c2ccccc2)c[nH]1 (as salt: hydrochloride) [Example 131, (1R)-3-phenyl-1-(4-phenyl-1H-imidazol-2-yl)-1-propanamine] — higher, 174 to 176 °C
- N[C@H](CC1CCCCC1)c1nc(-c2ccccc2)c[nH]1 (as salt: hydrochloride) [Example 132, (1R)-2-cyclohexyl-1-(4-phenyl-1H-imidazol-2-yl)ethanamine] — higher, 196 to 198 °C
- NCc1nc(-c2ccc(-c3ccccc3)cc2)c[nH]1 (as salt: hydrochloride) [Example 141, (4-[1,1′-biphenyl]4-yl-1H-imidazol-2-yl)methanamine] — higher, 240 to 242 °C
- NCc1nc(-c2ccc(-c3ccccc3)cc2)cn1Cc1ccccc1 (as salt: hydrochloride) [Example 143, (1-benzyl-4-[1,1′-biphenyl]-4-yl-1H-imidazol-2-yl)methanamine] — higher, 170 to 174 °C
- Cn1cc(-c2ccccc2)nc1[C@H](N)Cc1c[nH]c2ccccc12 (as salt: hydrochloride) [Example 151, (1R)-2-(1H-indol-3-yl)-1-(1-methyl-4-phenyl-1H-imidazol-2-yl)ethanamine] — higher, 206 to 210 °C
- N[C@H](CC1CCCCC1)c1nc(-c2ccc(-c3ccccc3)cc2)c[nH]1 (as salt: hydrochloride) [Example 154] — higher, 178 to 180 °C
- CNCc1nc(-c2ccc(-c3ccccc3)cc2)c[nH]1 (as salt: hydrochloride) [Example 155, (4-[1,1′-biphenyl]-4-yl-1H-imidazol-2-yl)-N-methylmethanamine] — higher, 218 to 220 °C
- CNCc1nc(-c2ccccc2)c(C)[nH]1 (as salt: hydrochloride) [Example 158, N-methyl-(5-methyl-4-phenyl-1H-imidazol-2-yl)methanamine] — higher, 218 to 220 °C
- NCc1nc(-c2ccccc2)c(-c2ccccc2)[nH]1 (as salt: hydrochloride) [Example 160, (4,5-diphenyl-1H-imidazol-2-yl)methanamine] — higher, 210 to 212 °C
- NCCc1nc(-c2ccc(-c3ccccc3)cc2)c[nH]1 (as salt: hydrochloride) [Example 161, 2-(4-[1,1′-biphenyl]4-yl-1H-imidazol-2-yl)ethanamine] — higher, 228 to 230 °C
- CNCc1nc(-c2ccccc2)c(-c2ccccc2)[nH]1 (as salt: hydrochloride) [Example 162, (4,5-diphenyl-1H-imidazol-2-yl)-N-methylmethanamine] — higher, 198 to 200 °C
- N[C@H](CCc1ccccc1)c1nc(-c2ccc(-c3ccccc3)cc2)c[nH]1 (as salt: hydrochloride) [Example 166, (1R)-1-(4-[1,1′-biphenyl]-4-yl-1H-imidazol-2-yl)-3-phenyl-1-propanamine] — higher, 215 to 218 °C
- NCCCCCCc1nc(-c2ccccc2)c[nH]1 (as salt: hydrochloride) [Example 180, 6-(4-phenyl-1H-imidazol-2-yl)hexylamine] — higher, 244 to 246 °C
- CC[C@H](N)c1nc(-c2ccccc2)c(-c2ccccc2)[nH]1 (as salt: hydrochloride) [Example 199, (1S)-1-(4,5-diphenyl-1H-imidazol-2-yl)-1-propanamine] — higher, 224 to 226 °C
- CCC[C@@H](N)c1nc(-c2ccccc2)c[nH]1 (as salt: hydrochloride) [Example 211, (1R)-1-(4-phenyl-1H-imidazol-2-yl)-1-butanamine] — higher, 182 to 184 °C
- C[C@@H](N)c1nc(-c2ccccc2)c[nH]1 (as salt: hydrochloride) [Example 219, (1R)-1-(4-phenyl-1H-imidazol-2-yl)ethanamine] — higher, 178 to 181 °C
- N[C@H](c1nc(-c2ccc(F)c(F)c2)c[nH]1)C1CCCCC1 (as salt: hydrochloride) [Example 258, (S)-cyclohexyl[4-(3,4-difluorophenyl)-1H-imidazol-2-yl]-methanamine] — higher, 222 to 223 °C
- COc1ccc(-c2c[nH]c([C@@H](N)C3CCCCC3)n2)cc1F (as salt: hydrochloride) [Example 259, (S)-cyclohexyl[4-(3-fluoro-4-methoxyphenyl)-1H-imidazol-2-yl]-methanamine] — higher, 225 to 227 °C
- c1ccc(-c2c[nH]c([C@@H](NCC3CCCCC3)C3CCCCC3)n2)cc1 (as salt: hydrochloride) [Example 265, (S)-cyclohexyl-N-(cyclohexylmethyl)(4-phenyl-1H-imidazol-2-yl)methanamine] — higher, 180 to 182 °C
- c1ccc(-c2c[nH]c([C@@H](NCC3CC3)C3CCCCC3)n2)cc1 (as salt: hydrochloride) [Example 267, (S)-cyclohexyl-N-(cyclopropylmethyl)(4-phenyl-1H-imidazol-2-yl)methanamine] — lower, 151 to 152 °C
- Fc1ccc(-c2c[nH]c([C@@H](NCC3CC3)C3CCCCC3)n2)cc1 (as salt: hydrochloride) [Example 273, (S)-cyclohexyl-N-(cyclopropylmethyl)[4-(4-fluorophenyl)-1H-imidazol-2-yl]-methanamine] — higher, 221.4 °C
- c1cc(C2CCCCC2)ccc1-c1c[nH]c([C@@H](NC2CCC2)C2CCCCC2)n1 (as salt: hydrochloride) [Example 275, N-{(S)-cyclohexyl[4-(4-cyclohexylphenyl)-1H-imidazol-2-yl]methyl}cyclobutanamine] — higher, 190 to 192 °C
- Cn1cc(-c2ccc(F)cc2)nc1[C@@H](NC1CCCCC1)C1CCCCC1 (as salt: hydrochloride) [Example 279, N-{(S)-cyclohexyl[4-(4-fluorophenyl)-1-methyl-1H-imidazol-2-yl]methyl}cyclohexanamine] — higher, 190 to 194 °C
- CCN(CC)c1ccc(-c2c[nH]c([C@@H](NCC3CCCCC3)C3CCCCC3)n2)cc1 (as salt: hydrochloride) [Example 290, 4-(2-{(S)-cyclohexyl[(cyclohexylmethyl)amino]methyl}-1H-imidazol-4-yl)-N,N-diethylaniline] — higher, 204 to 206 °C
- CC(C)(C)c1cc(-c2c[nH]c([C@@H](NCC3CCCCC3)C3CCCCC3)n2)cc(C(C)(C)C)c1O (as salt: hydrochloride) [Example 291, 2,6-ditert-butyl-4-(2-{(S)-cyclohexyl[(cyclohexylmethyl)amino]-methyl}-1H-imidazol-4-yl)phenol] — higher, 254.6 °C

For `N[C@H](Cc1c[nH]c2ccccc12)c1nc(-c2ccccc2)c(-c2ccccc2)[nH]1` (as salt: hydrochloride), the melting point was > 260 °C.
In the case of `c1ccc(CNCc2nc(-c3ccc(-c4ccccc4)cc3)c[nH]2)cc1` (as salt: hydrochloride) [Example 168, N-benzyl(4-[1,1′-biphenyl]4-yl-1H-imidazol-2-yl)methanamine], the melting point is reported as > 250 °C.
In the case of `NCCCc1nc(-c2ccc(-c3ccccc3)cc2)c[nH]1` (as salt: hydrochloride) [Example 179, 3-(4-[1,1′-biphenyl]-4-yl-1H-imidazol-2-yl)-1-propanamine], the melting point is reported as > 260 °C.
For `CC[C@H](N)c1nc(-c2ccc(-c3ccccc3)cc2)c[nH]1` (as salt: hydrochloride) [Example 196, (1S)-1-(4-[1,1′-biphenyl]-4-yl-1H-imidazol-2-yl)-1-propanamine], the melting point was > 250 °C.
For `Fc1ccc(-c2c[nH]c([C@@H](NC3CCCCC3)C3CCCCC3)n2)cc1` (as salt: hydrochloride) [Example 264, N-{(S)-cyclohexyl[4-(4-fluorophenyl)-1H-imidazol-2-yl]methyl}cyclohexanamine], the melting point was > 250 °C.

— patent US7291641B2, “Derivatives of heterocycles with 5 members, their preparation and their use as medicaments” (Societe de Conseils de Recherches et d'Applications …, priority 1999, dated 2007)
